Test results: ChEMBL document CHEMBL1201862, “PubChem BioAssay data set” (2004)
Values joined by “and” are separate entries in the source; they are usually repeats but may differ in a detail not shown here. Equal entries are not always repeated.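 Cells were grown in 96-well plates and exposed to each compound for 48 hours at five concentrations; endpoints were interpolated linearly between bracketing concentrations, or set to the highest concentration if not reached. GI50: concentration for 50% inhibition of growth.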 Active and inactive are the calls of the source. Cut-off read from the data, not from the text of the source: active = GI50 up to about 1.1 µM and inactive = higher.

Tests used:
Experiment in all cases: DTP human tumour cell line panel, 48 h
BT-549 = tested on: BT-549
CAKI-1 = tested on: CAKI-1
DU-145 = tested on: DU-145
HOP-62 = tested on: HOP-62
HT-29 = tested on: HT-29
IGROV-1 = tested on: IGROV-1
LOX IMVI = tested on: LOX IMVI
MDA-N = tested on: MDA-N
MOLT-4 = tested on: MOLT-4
NCI-H226 = tested on: NCI-H226
OVCAR-4 = tested on: OVCAR-4
OVCAR-5 = tested on: OVCAR-5
RXF 393 = tested on: RXF 393
SF-539 = tested on: SF-539
SK-MEL-5 = tested on: SK-MEL-5
SK-OV-3 = tested on: SK-OV-3
SR = tested on: SR
UACC-62 = tested on: UACC-62
HOP-92 = tested on: HOP-92
T47D = tested on: T47D

Structure (SMILES)	GI50 (BT-549)	GI50 (CAKI-1)	GI50 (DU-145)	GI50 (HOP-62)	GI50 (HT-29)	GI50 (IGROV-1)	GI50 (LOX IMVI)	GI50 (MDA-N)	GI50 (MOLT-4)	GI50 (NCI-H226)	GI50 (OVCAR-4)	GI50 (OVCAR-5)	GI50 (RXF 393)	GI50 (SF-539)	GI50 (SK-MEL-5)	GI50 (SK-OV-3)	GI50 (SR)	GI50 (UACC-62)	GI50 (HOP-92)	GI50 (T47D)
CC(=O)NC(C)(C)C1CCC(C)CC1 (stereo unspecified)	> 100 µM (inactive)	> 100 µM (inactive)	> 100 µM (inactive)	> 100 µM (inactive)	> 100 µM (inactive)	> 100 µM (inactive)	> 100 µM (inactive)	> 100 µM (inactive)	> 100 µM (inactive)	> 100 µM (inactive)	> 100 µM (inactive)	> 100 µM (inactive)	> 100 µM (inactive)	> 100 µM (inactive)	> 100 µM (inactive)	> 100 µM (inactive)	> 100 µM (inactive)	> 100 µM (inactive)	–	–
CC12CCC(CC(=O)/C1=C(/Br)I)C2(C)C (stereo unspecified)	–	16.9 µM (inactive)	17.7 µM (inactive)	17.9 µM (inactive)	11.4 µM (inactive)	16.9 µM (inactive)	0.0789 µM (active)	12.2 µM (inactive)	7.18 µM (inactive)	13.8 µM (inactive)	15.1 µM (inactive)	2.02 µM (inactive)	4.6 µM (inactive)	15.7 µM (inactive)	11.4 µM (inactive)	20.7 µM (inactive)	15.8 µM (inactive)	14.5 µM (inactive)	17.3 µM (inactive)	21.7 µM (inactive)
O=C1OCC(O)=C1C(c1ccc(Cl)cc1)c1cc2c(cc1O)OCO2 (stereo unspecified)	> 100 µM (inactive)	> 100 µM (inactive)	> 100 µM (inactive)	> 100 µM (inactive)	> 100 µM (inactive)	> 100 µM (inactive)	> 100 µM (inactive)	> 100 µM (inactive)	> 100 µM (inactive)	> 100 µM (inactive)	> 100 µM (inactive)	> 100 µM (inactive)	> 100 µM (inactive)	> 100 µM (inactive)	> 100 µM (inactive)	> 100 µM (inactive)	> 100 µM (inactive)	> 100 µM (inactive)	> 100 µM (inactive)	–
CCCC(=O)NC(NC1CCCCC1)(C(=O)OCC)C(F)(F)F (stereo unspecified)	–	–	> 100 µM (inactive)	> 100 µM (inactive)	> 100 µM (inactive)	> 100 µM (inactive)	> 100 µM (inactive)	> 100 µM (inactive)	> 100 µM (inactive)	> 100 µM (inactive)	> 100 µM (inactive)	> 100 µM (inactive)	> 100 µM (inactive)	> 100 µM (inactive)	> 100 µM (inactive)	> 100 µM (inactive)	> 100 µM (inactive)	–	> 100 µM (inactive)	> 100 µM (inactive)
CCOc1ccc(/N=C(/NC(=O)c2ccccc2)SC)cc1	–	> 100 µM (inactive)	–	> 100 µM (inactive)	> 100 µM (inactive)	> 100 µM (inactive)	> 100 µM (inactive)	–	> 100 µM (inactive)	> 100 µM (inactive)	> 100 µM (inactive)	> 100 µM (inactive)	> 100 µM (inactive)	> 100 µM (inactive)	> 100 µM (inactive)	> 100 µM (inactive)	> 100 µM (inactive)	> 100 µM (inactive)	> 100 µM (inactive)	–
N#CC(NNC(=O)Cc1ccccc1)c1ccc(O)cc1 (stereo unspecified)	–	> 100 µM (inactive)	–	> 100 µM (inactive)	> 100 µM (inactive)	> 100 µM (inactive)	> 100 µM (inactive)	–	> 100 µM (inactive)	> 100 µM (inactive)	> 100 µM (inactive)	> 100 µM (inactive)	> 100 µM (inactive)	> 100 µM (inactive)	> 100 µM (inactive)	> 100 µM (inactive)	> 100 µM (inactive)	> 100 µM (inactive)	85.9 µM (inactive)	–
O=[N+]([O-])c1ccc(/C=N/C2CCCCC2)cc1	–	> 100 µM (inactive)	–	> 100 µM (inactive)	> 100 µM (inactive)	> 100 µM (inactive)	> 100 µM (inactive)	–	> 100 µM (inactive)	> 100 µM (inactive)	> 100 µM (inactive)	> 100 µM (inactive)	> 100 µM (inactive)	> 100 µM (inactive)	> 100 µM (inactive)	> 100 µM (inactive)	> 100 µM (inactive)	> 100 µM (inactive)	> 100 µM (inactive)	–
Cc1nc2ccc(Cl)cc2c(Cl)c1CCCl	–	54 µM (inactive)	43.7 µM (inactive)	42.4 µM (inactive)	27.2 µM (inactive)	72.6 µM (inactive)	43.6 µM (inactive)	8.15 µM (inactive)	15.6 µM (inactive)	43.6 µM (inactive)	–	38.5 µM (inactive)	> 100 µM (inactive)	> 100 µM (inactive)	25.3 µM (inactive)	> 100 µM (inactive)	34.4 µM (inactive)	28.1 µM (inactive)	33.5 µM (inactive)	–
COCCN(CCOC)C(=O)COc1c2cc(C(C)(C)C)cc1Cc1cc(C(C)(C)C)cc(c1OCC(=O)N(CCOC)CCOC)Cc1cc(C(C)(C)C)cc(c1OCC(=O)N(CCOC)CCOC)Cc1cc(C(C)(C)C)cc(c1OCC(=O)N(CCOC)CCOC)Cc1cc(C(C)(C)C)cc(c1OCC(=O)N(CCOC)CCOC)C2	–	–	2.81 µM (inactive)	1.73 µM (inactive)	0.908 µM (active)	1.18 µM (inactive)	1.73 µM (inactive)	2.1 µM (inactive)	1.74 µM (inactive)	1.28 µM (inactive)	0.467 µM (active)	5.55 µM (inactive)	1.09 µM (active)	2.34 µM (inactive)	1.32 µM (inactive)	3.05 µM (inactive)	0.352 µM (active)	1.18 µM (inactive)	–	1.27 µM (inactive)
CC1(C)N=c2c(ncn2-c2ccccc2)=C(C(N)=O)N1	–	> 100 µM (inactive)	> 100 µM (inactive)	> 100 µM (inactive)	> 100 µM (inactive)	> 100 µM (inactive)	> 100 µM (inactive)	> 100 µM (inactive)	–	> 100 µM (inactive)	> 100 µM (inactive)	> 100 µM (inactive)	> 100 µM (inactive)	> 100 µM (inactive)	> 100 µM (inactive)	> 100 µM (inactive)	> 100 µM (inactive)	> 100 µM (inactive)	–	> 100 µM (inactive)
Cc1ccc(S(=O)(=O)NC(=O)Nc2cc(Cl)c(S(N)(=O)=O)cc2S(N)(=O)=O)cc1	> 100 µM (inactive)	> 100 µM (inactive)	> 100 µM (inactive)	> 100 µM (inactive)	> 100 µM (inactive)	> 100 µM (inactive)	> 100 µM (inactive)	> 100 µM (inactive)	> 100 µM (inactive)	> 100 µM (inactive)	> 100 µM (inactive)	> 100 µM (inactive)	> 100 µM (inactive)	58.3 µM (inactive)	> 100 µM (inactive)	> 100 µM (inactive)	–	> 100 µM (inactive)	> 100 µM (inactive)	–
O=C1c2ccccc2C(=O)c2sc(Nc3cc(Cl)ccc3Cl)nc21	–	5.02 µM (inactive)	8.57 µM (inactive)	15 µM (inactive)	14.1 µM (inactive)	4.15 µM (inactive)	2.28 µM (inactive)	1.82 µM (inactive)	2.52 µM (inactive)	17.6 µM (inactive)	4.16 µM (inactive)	20.9 µM (inactive)	14.3 µM (inactive)	3.16 µM (inactive)	1.53 µM (inactive)	16 µM (inactive)	2.52 µM (inactive)	2.49 µM (inactive)	15.1 µM (inactive)	3.99 µM (inactive)
CC1OC(OC2C(OC(=O)[C@]34CCC(C)(C)C[C@H]3C3=CC[C@@H]5[C@@]6(C)CC[C@H](OC7OC(C(=O)O)C(O)C(O)C7O)C(C)(C)[C@@H]6CC[C@@]5(C)[C@]3(C)CC4)OCC(O)C2O)C(O)C(O)C1OC1OCC(O)C(O)C1O (stereo partly specified)	–	30 µM (inactive) and 40.4 µM (inactive)	–	–	15.4 µM (inactive) and 28.2 µM (inactive)	> 100 µM (inactive)	66.8 µM (inactive)	17.9 µM (inactive) and 18.2 µM (inactive)	–	43.6 µM (inactive) and 43.9 µM (inactive)	54 µM (inactive) and 53.8 µM (inactive)	48.2 µM (inactive) and 31 µM (inactive)	> 100 µM (inactive) and 70.1 µM (inactive)	–	–	> 100 µM (inactive) and 82.8 µM (inactive)	–	39.4 µM (inactive) and 28 µM (inactive)	30.6 µM (inactive) and 20.5 µM (inactive)	34.8 µM (inactive) and 56.9 µM (inactive)
Cc1nc2c(O)cc3c4c(n(Cc5ccccc5)c3c2nc1C)C(=O)CCC4	–	–	7.13 µM (inactive)	12.7 µM (inactive)	> 100 µM (inactive)	–	64.1 µM (inactive)	45.9 µM (inactive)	> 100 µM (inactive)	> 100 µM (inactive)	13.9 µM (inactive)	> 100 µM (inactive)	5.46 µM (inactive)	17.5 µM (inactive)	25.5 µM (inactive)	14.6 µM (inactive)	18 µM (inactive)	24.5 µM (inactive)	15.4 µM (inactive)	–
C[C@H]1C/C=C/[C@H]2[C@@H]3O[C@]3(C)[C@@H](C)[C@H]3[C@H](Cc4ccccc4)NC(=O)[C@]32OC(=O)O/C=C/[C@@](C)(O)C1=O [CYTOCHALASIN E]	0.0392 µM (active)	0.0132 µM (active)	< 0.01 µM (active)	0.0206 µM (active)	0.0194 µM (active)	–	0.0128 µM (active)	0.0231 µM (active)	8.59 µM (inactive)	0.0333 µM (active)	0.0262 µM (active)	11.3 µM (inactive)	0.0111 µM (active)	0.0169 µM (active)	0.0211 µM (active)	0.0292 µM (active)	0.065 µM (active)	0.1 µM (active)	0.0239 µM (active)	–
